Like-named read-outs stand apart in the source and are kept apart here.
Tests used:
[1] = tested on: NCI-60 cancer cell lines; test: NCI-60 cancer cell line drug screen (GI50, MGM); assay type: cell-based, human; details: for GI50: read-out: Antiproliferative Activities [GI50 (μM)]
Procedure: Cancer cells were incubated with the test compounds at five concentrations ranging from 100 μM to 10 nM for 48 h. […] The approximate average of GI50 values across the entire panel of NCI-60 cancer cell lines for each compound was recorded as the MGM value.

[2] = tested on: MYC protein expression in MCF-7 breast cancer cells; test: Western blotting of MYC protein level in MCF-7 cells; assay type: cell-based, human
Procedure, shortened: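 Immunoblotting with ECL detection quantified MYC, with GAPDH (1:2000) as reference and anti-MYC at 1:1000.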

[3] = molecular target: T1, human topoisomerase I (Homo sapiens, UniProt P11387); details: relative topoisomerase I inhibition levels, previously determined, six levels (0 - 5, +++++ = 5); cited from earlier work
T1 sequence (P11387 1-765): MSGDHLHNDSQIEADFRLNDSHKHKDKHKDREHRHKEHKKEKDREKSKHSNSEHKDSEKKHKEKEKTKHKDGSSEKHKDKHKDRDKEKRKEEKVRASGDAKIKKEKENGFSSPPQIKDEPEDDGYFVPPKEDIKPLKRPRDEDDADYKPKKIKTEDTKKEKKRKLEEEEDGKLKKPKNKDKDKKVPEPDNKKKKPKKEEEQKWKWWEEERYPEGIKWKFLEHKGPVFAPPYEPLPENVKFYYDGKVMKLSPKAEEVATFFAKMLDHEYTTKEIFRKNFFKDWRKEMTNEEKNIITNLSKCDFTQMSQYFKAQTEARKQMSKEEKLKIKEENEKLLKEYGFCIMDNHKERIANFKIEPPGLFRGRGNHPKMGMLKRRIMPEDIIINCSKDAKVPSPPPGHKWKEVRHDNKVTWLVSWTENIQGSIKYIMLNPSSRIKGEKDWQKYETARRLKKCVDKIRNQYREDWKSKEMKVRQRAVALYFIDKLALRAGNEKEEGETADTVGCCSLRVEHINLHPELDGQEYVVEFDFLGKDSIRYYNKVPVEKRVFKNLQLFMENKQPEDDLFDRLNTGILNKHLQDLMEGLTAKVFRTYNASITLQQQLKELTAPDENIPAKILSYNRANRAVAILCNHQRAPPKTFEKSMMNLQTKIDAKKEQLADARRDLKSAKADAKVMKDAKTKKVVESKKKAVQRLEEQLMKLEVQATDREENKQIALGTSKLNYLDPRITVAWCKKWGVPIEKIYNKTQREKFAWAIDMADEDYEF

Structure (SMILES): COc1cnc2c(c1)C(=O)c1c-2n(CCCNC(C)C)c(=O)c2cc(F)ccc12 [Compound 5]
- GI50 ([1]; Homo sapiens, 786-0, Renal Cancer, 786-0): 0.12 µM
- GI50 ([1]; Homo sapiens, A498, Renal Cancer, A498): 0.2 µM
- GI50 ([1]; Homo sapiens, A549, Non-Small Cell Lung Cancer, A549/ATCC): 0.07 µM
- GI50 ([1]; Homo sapiens, ACHN, Renal Cancer, ACHN): 0.06 µM
- GI50 ([1]; Homo sapiens, BT-549, Breast Cancer, BT-549): 0.66 µM
- GI50 ([1]; Homo sapiens, CCRF-CEM, Leukemia, CCRF-CEM): 0.11 µM
- GI50 ([1]; Homo sapiens, COLO 205, Colon Cancer, COLO 205): 0.09 µM
- GI50 ([1]; Homo sapiens, DU-145, Prostate Cancer, DU-145): 0.21 µM
- GI50 ([1]; Homo sapiens, EKVX, Non-Small Cell Lung Cancer, EKVX): 0.3 µM
- GI50 ([1]; Homo sapiens, HCC 2998, Colon Cancer, HCC-2998): 0.4 µM
- GI50 ([1]; Homo sapiens, HCT-15, Colon Cancer, HCT-15): 0.16 µM
- GI50 ([1]; Homo sapiens, HCT-116, Colon Cancer, HCT-116): 0.09 µM
- GI50 ([1]; Homo sapiens, HL-60, Leukemia, HL-60(TB)): 0.16 µM
- GI50 ([1]; Homo sapiens, HOP-62, Non-Small Cell Lung Cancer, HOP-62): 0.11 µM
- GI50 ([1]; Homo sapiens, HOP-92, Non-Small Cell Lung Cancer, HOP-92): 0.28 µM
- GI50 ([1]; Homo sapiens, HT-29, Colon Cancer, HT29): 0.07 µM
- GI50 ([1]; Homo sapiens, Hs-578T, Breast Cancer, HS 578T): 0.75 µM
- GI50 ([1]; Homo sapiens, IGROV-1, Ovarian Cancer, IGROV1): 0.21 µM
- GI50 ([1]; Homo sapiens, K562, Leukemia, K-562): 0.13 µM
- GI50 ([1]; Homo sapiens, KM12, Colon Cancer, KM12): 0.17 µM
- GI50 ([1]; Homo sapiens, LOX IMVI, Melanoma, LOX IMVI): 0.11 µM
- GI50 ([1]; Homo sapiens, Leukemia, SR): 0.08 µM
- GI50 ([1]; Homo sapiens, MCF7, Breast Cancer, MCF7): 0.03 µM
- GI50 ([1]; Homo sapiens, MDA-MB-231, Breast Cancer, MDA-MB-231/ATCC): 0.4 µM
- GI50 ([1]; Homo sapiens, MDA-MB-435, Melanoma, MDA-MB-435): 0.31 µM
- GI50 ([1]; Homo sapiens, MDA-MB-468, Breast Cancer, MDA-MB-468): 0.23 µM
- GI50 ([1]; Homo sapiens, MOLT-4, Leukemia, MOLT-4): 0.04 µM
- GI50 ([1]; Homo sapiens, Malme-3M, Melanoma, MALME-3M): 0.2 µM
- GI50 ([1]; Homo sapiens, Melanoma, M14): 0.23 µM
- GI50 ([1]; Homo sapiens, NCI-H23, Non-Small Cell Lung Cancer, NCI-H23): 0.18 µM
- GI50 ([1]; Homo sapiens, NCI-H226, Non-Small Cell Lung Cancer, NCI-H226): 0.15 µM
- GI50 ([1]; Homo sapiens, NCI-H322M, Non-Small Cell Lung Cancer, NCI-H322M): 0.32 µM
- GI50 ([1]; Homo sapiens, NCI-H460, Non-Small Cell Lung Cancer, NCI-H460): 0.04 µM
- GI50 ([1]; Homo sapiens, NCI-H522, Non-Small Cell Lung Cancer, NCI-H522): 0.04 µM
- GI50 ([1]; Homo sapiens, OVCAR-3, Ovarian Cancer, OVCAR-3): 0.19 µM
- GI50 ([1]; Homo sapiens, OVCAR-4, Ovarian Cancer, OVCAR-4): 0.3 µM
- GI50 ([1]; Homo sapiens, OVCAR-5, Ovarian Cancer, OVCAR-5): 0.28 µM
- GI50 ([1]; Homo sapiens, OVCAR-8, Ovarian Cancer, OVCAR-8): 0.14 µM
- GI50 ([1]; Homo sapiens, Ovarian Cancer, NCl/ADR-RES): 0.23 µM
- GI50 ([1]; Homo sapiens, Prostate Cancer, PC-3): 0.28 µM
- GI50 ([1]; Homo sapiens, RPMI-8226, Leukemia, RPMI-8226): 0.15 µM
- GI50 ([1]; Homo sapiens, RXF 393, Renal Cancer, RXF 393): 0.23 µM
- GI50 ([1]; Homo sapiens, Renal Cancer, U0-31): 0.08 µM
- GI50 ([1]; Homo sapiens, SF-268, CNS Cancer, SF-268): 0.21 µM
- GI50 ([1]; Homo sapiens, SF-295, CNS Cancer, SF-295): 0.09 µM
- GI50 ([1]; Homo sapiens, SF-539, CNS Cancer, SF-539): 0.25 µM
- GI50 ([1]; Homo sapiens, SK-MEL-2, Melanoma, SK-MEL-2): 0.51 µM
- GI50 ([1]; Homo sapiens, SK-MEL-5, Melanoma, SK-MEL-5): 0.16 µM
- GI50 ([1]; Homo sapiens, SK-MEL-28, Melanoma, SK-MEL-28): 0.94 µM
- GI50 ([1]; Homo sapiens, SK-OV-3, Ovarian Cancer, SK-OV-3): 0.22 µM
- GI50 ([1]; Homo sapiens, SN12C, Renal Cancer, SN12C): 0.16 µM
- GI50 ([1]; Homo sapiens, SNB-19, CNS Cancer, SNB-19): 0.18 µM
- GI50 ([1]; Homo sapiens, SNB-75, CNS Cancer, SNB-75): 0.22 µM
- GI50 ([1]; Homo sapiens, SW-620, Colon Cancer, SW-620): 0.12 µM
- GI50 ([1]; Homo sapiens, T47D, Breast Cancer, T-47D): 0.08 µM
- GI50 ([1]; Homo sapiens, TK-10, Renal Cancer, TK-10): 0.18 µM
- GI50 ([1]; Homo sapiens, U-251, CNS Cancer, U251): 0.08 µM
- GI50 ([1]; Homo sapiens, UACC-62, Melanoma, UACC-62): 0.27 µM
- GI50 ([1]; Homo sapiens, UACC-257, Melanoma, UACC-257): 0.47 µM
- mean GI50 across NCI-60 panel (MGM) ([1]; Homo sapiens, average of GI50 values across the entire panel of NCI-60 cancer cell lines): 165 nM
- anticancer activity (GI50 profile) in words ([1]; NCI-60 panel): more potent anticancer activities compared to compounds 4 and 20
- minimal effective concentration ([2]; Homo sapiens, MCF7, western blotting, MCF-7 cells, 0.5, 1, 2, and 4 μM, 24 hours, read-out: MYC Inhibition): 0.5 to 1 µM
- MYC-inhibitory effect (MYC protein, western blot) ([2]; MCF-7, 0.5, 1, 2, and 4 μM, 24 h): clear MYC-inhibitory effect
- Top1 Inhibiton [3]: ++ (medium inhibition, ++, MYC expression inhibited at 2.0 μM, or no clear dose-dependent MYC inhibition)

Source: patent publication US20210382058A1, “PATIENT SELECTION FOR TREATMENT OF MYC POSITIVE CANCERS WITH INDENOISOQUINOLINES” (Purdue Research Foundation, priority 2020, published 2021)
